Structures are written as SMILES.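 Tested at 5 concentrations; 48 h exposure; 96-well plates; endpoints linearly interpolated, else capped at highest concentration. Here, GI50 denotes the concentration required for 50% inhibition of growth. TGI is the concentration that stops growth completely.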

One assay has as its system RPMI-8226 leukemia. Briefly: NCI tumour cell line growth inhibition, 48 h.
As to `CN1CCN(Cc2ccc(C(=O)Nc3cncc(C#Cc4cnc(N)c5ccccc45)c3)cc2C(F)(F)F)CC1`, the GI50 is 2.15 µM and the TGI was 5.27 µM.

As to `CC(=O)OCC1OC(O[C@@H]2C[C@H]3C(C)(C)[C@H](OC(C)=O)CC[C@]3(C)[C@H]3CCC4=C([C@@H](C)C[C@@H](O)[C@H](O)C(C)(C)O)CC[C@@]4(C)[C@@]32C)C(O)C(O)C1O` (stereo not given in full), the GI50 is 10.5 µM and the TGI was 30.1 µM.

In the case of `N#CC(=C1SCS1)[N+](=O)[O-]`, the GI50 is 0.678 µM and the TGI is 4.06 µM.

For `CC(C)(C)OC(=O)n1cc(CNC(=S)Nc2ccccc2)c2ccccc21`, the GI50 was 3.27 µM and the TGI worked out at 16.4 µM.

Regarding `O=C(NNc1nc2c(F)cccc2n2cccc12)c1cnccn1`, the GI50 was 0.418 µM and the TGI came to 9.88 µM.

For `CN=C(N)N/N=C(\c1ccccc1)c1ccc(Br)cc1`, the GI50 is 0.441 µM and the TGI was 3.13 µM.

Consider `COc1cc(/C=C\[N+](=O)[O-])ccc1O`, for which the GI50 was 2.2 µM and the TGI was 6.11 µM.

In the case of `C=CC(=O)N[C@H]1C=C(C)c2c(-c3cnc4ccccc4c3)c3c(N)ncnc3n2C1`, the GI50 is 17.9 µM and the TGI was 60.6 µM.

With `CCOc1ccc(S(=O)(=O)/N=C2\C=C(SCC(=O)O)C(=O)c3ccccc32)cc1`, the GI50 was 2.05 µM and the TGI came to 13.2 µM.

As to `C[C@@H]1CC[C@@H]2[C@@H]1[C@H](OC(=O)/C=C/c1ccccc1)[C@]1(c3ccccc3)C[C@@H](OC(=O)CO)[C@@]2(C)O1`, the GI50 is 10.3 µM and the TGI came out at 38.9 µM.

As for `O=C(c1ccc2ccccc2c1)c1c(C(F)(F)F)n([O-])c2cc(Cl)c(Cl)cc2[n+]1=O`, the GI50 was 1.58 µM and the TGI is 3.85 µM.

For `O=C(CSc1nc2ccc([N+](=O)[O-])cc2[nH]1)Nc1ccc(F)c(Cl)c1`, the GI50 is 1.39 µM and the TGI is over 21.5 µM.

For `C=C1C(=O)O[C@H]2[C@H]1CC/C(CNC(=O)c1c[nH]c3ccc(F)cc13)=C\CC[C@@]1(C)O[C@@H]21`, the GI50 is 1.14 µM and the TGI was determined as 3.72 µM.

With `Cc1nn(-c2ccc(F)cc2)c2ncnc(Nc3ccc(NC(=O)Nc4ccc(Cl)c(C(F)(F)F)c4)cc3)c12`, the GI50 is 1.71 µM and the TGI worked out at 9.54 µM.

Turning to `O=C(CCN1CCN(c2cnc3ccccc3n2)CC1)c1csc2ccccc12`, the GI50 was 9.4 µM and the TGI was over 100 µM.

Consider `COc1cc2ncn(-c3cc(OCc4ccccc4Cl)c(C(N)=O)s3)c2cc1OC`, for which the GI50 is 0.341 µM and the TGI was over 25 µM.

For the compound `Cc1ccc2c(C(C[N+](=O)[O-])c3cccs3)c(-c3ccccc3)[nH]c2c1` (stereo not given), the GI50 was 2.05 µM and the TGI came out at 23.7 µM.

`N/C(CC(=O)Nc1cc(C(F)(F)F)ccc1Cl)=N\O` showed a TGI of over 100 µM.

In a further assay the test system is NCI-H226 lung. Description: NCI tumour cell line growth inhibition, 48 h.
`CN1CCN(Cc2ccc(C(=O)Nc3cncc(C#Cc4cnc(N)c5ccccc45)c3)cc2C(F)(F)F)CC1`: the GI50 is 3.18 µM and the TGI worked out at 27.5 µM.

On to `CC(=O)OCC1OC(O[C@@H]2C[C@H]3C(C)(C)[C@H](OC(C)=O)CC[C@]3(C)[C@H]3CCC4=C([C@@H](C)C[C@@H](O)[C@H](O)C(C)(C)O)CC[C@@]4(C)[C@@]32C)C(O)C(O)C1O` (stereo not given in full), for which the GI50 is 17.3 µM and the TGI was 32 µM.

As to `N#CC(=C1SCS1)[N+](=O)[O-]`, the GI50 was 16.7 µM and the TGI was determined as 62.8 µM.

Take `CC(C)(C)OC(=O)n1cc(CNC(=S)Nc2ccccc2)c2ccccc21`: the GI50 is 14.3 µM and the TGI came out at 30.7 µM.

`O=C(NNc1nc2c(F)cccc2n2cccc12)c1cnccn1`: the GI50 is 0.522 µM and the TGI was 7 µM.

On to `CN=C(N)N/N=C(\c1ccccc1)c1ccc(Br)cc1`, for which the GI50 was 1.09 µM and the TGI worked out at 11.8 µM.

In the case of `COc1cc(/C=C\[N+](=O)[O-])ccc1O`, the GI50 was 4.34 µM and the TGI came out at 16.6 µM.

With `C=CC(=O)N[C@H]1C=C(C)c2c(-c3cnc4ccccc4c3)c3c(N)ncnc3n2C1`, the GI50 is 8.85 µM and the TGI was over 68.1 µM.

With `CCOc1ccc(S(=O)(=O)/N=C2\C=C(SCC(=O)O)C(=O)c3ccccc32)cc1`, the GI50 was 21.7 µM and the TGI was found to be 50.6 µM.

Turning to `C[C@@H]1CC[C@@H]2[C@@H]1[C@H](OC(=O)/C=C/c1ccccc1)[C@]1(c3ccccc3)C[C@@H](OC(=O)CO)[C@@]2(C)O1`, the GI50 is 13.2 µM and the TGI was 29 µM.

On to `O=C(c1ccc2ccccc2c1)c1c(C(F)(F)F)n([O-])c2cc(Cl)c(Cl)cc2[n+]1=O`, for which the GI50 was 1.46 µM and the TGI was 2.92 µM.

On to `O=C(CSc1nc2ccc([N+](=O)[O-])cc2[nH]1)Nc1ccc(F)c(Cl)c1`, for which the GI50 is 2.15 µM and the TGI was 9.57 µM.

Take `C=C1C(=O)O[C@H]2[C@H]1CC/C(CNC(=O)c1c[nH]c3ccc(F)cc13)=C\CC[C@@]1(C)O[C@@H]21`: the GI50 was 13.9 µM and the TGI came to 38.6 µM.

Take `Cc1nn(-c2ccc(F)cc2)c2ncnc(Nc3ccc(NC(=O)Nc4ccc(Cl)c(C(F)(F)F)c4)cc3)c12`: the GI50 is 2.31 µM and the TGI is 5.99 µM.

Turning to `O=C(CCN1CCN(c2cnc3ccccc3n2)CC1)c1csc2ccccc12`, the GI50 is 35.7 µM and the TGI was over 100 µM.

For `COc1cc2ncn(-c3cc(OCc4ccccc4Cl)c(C(N)=O)s3)c2cc1OC`, the GI50 is 0.801 µM and the TGI is over 25 µM.

`Cc1ccc2c(C(C[N+](=O)[O-])c3cccs3)c(-c3ccccc3)[nH]c2c1` (stereo not given): the GI50 was 3.38 µM and the TGI stood at 8.61 µM.

With `N/C(CC(=O)Nc1cc(C(F)(F)F)ccc1Cl)=N\O`, the TGI is over 100 µM.

In the next assay the test system is SF-295 CNS. Description: NCI tumour cell line growth inhibition, 48 h.
In the case of `CN1CCN(Cc2ccc(C(=O)Nc3cncc(C#Cc4cnc(N)c5ccccc45)c3)cc2C(F)(F)F)CC1`, the GI50 is 1.86 µM and the TGI is 3.46 µM.

For `CC(=O)OCC1OC(O[C@@H]2C[C@H]3C(C)(C)[C@H](OC(C)=O)CC[C@]3(C)[C@H]3CCC4=C([C@@H](C)C[C@@H](O)[C@H](O)C(C)(C)O)CC[C@@]4(C)[C@@]32C)C(O)C(O)C1O` (stereo not given in full), the GI50 is 17.5 µM and the TGI is 31.6 µM.

On to `N#CC(=C1SCS1)[N+](=O)[O-]`, for which the GI50 was 4.82 µM and the TGI came out at 44.4 µM.

In the case of `CC(C)(C)OC(=O)n1cc(CNC(=S)Nc2ccccc2)c2ccccc21`, the GI50 was 6.04 µM and the TGI stood at 23.4 µM.

As for `O=C(NNc1nc2c(F)cccc2n2cccc12)c1cnccn1`, the GI50 was 0.401 µM and the TGI is 16 µM.

`CN=C(N)N/N=C(\c1ccccc1)c1ccc(Br)cc1`: the GI50 was 0.287 µM and the TGI turned out to be 1.48 µM.

Consider `COc1cc(/C=C\[N+](=O)[O-])ccc1O`, for which the GI50 is 17.2 µM and the TGI was determined as 31.5 µM.

Turning to `C=CC(=O)N[C@H]1C=C(C)c2c(-c3cnc4ccccc4c3)c3c(N)ncnc3n2C1`, the GI50 is 22.9 µM and the TGI worked out at 68 µM.

Take `CCOc1ccc(S(=O)(=O)/N=C2\C=C(SCC(=O)O)C(=O)c3ccccc32)cc1`: the GI50 was 13 µM and the TGI is 30.2 µM.

As for `C[C@@H]1CC[C@@H]2[C@@H]1[C@H](OC(=O)/C=C/c1ccccc1)[C@]1(c3ccccc3)C[C@@H](OC(=O)CO)[C@@]2(C)O1`, the GI50 was 12.8 µM and the TGI came to 32.3 µM.

As for `O=C(c1ccc2ccccc2c1)c1c(C(F)(F)F)n([O-])c2cc(Cl)c(Cl)cc2[n+]1=O`, the GI50 was 1.66 µM and the TGI was 3.06 µM.

As for `O=C(CSc1nc2ccc([N+](=O)[O-])cc2[nH]1)Nc1ccc(F)c(Cl)c1`, the GI50 was 1.81 µM and the TGI stood at 5.5 µM.

In the case of `C=C1C(=O)O[C@H]2[C@H]1CC/C(CNC(=O)c1c[nH]c3ccc(F)cc13)=C\CC[C@@]1(C)O[C@@H]21`, the GI50 was 3.71 µM and the TGI came out at 17 µM.

For the compound `Cc1nn(-c2ccc(F)cc2)c2ncnc(Nc3ccc(NC(=O)Nc4ccc(Cl)c(C(F)(F)F)c4)cc3)c12`, the GI50 is 2.25 µM and the TGI amounted to 6.17 µM.

With `O=C(CCN1CCN(c2cnc3ccccc3n2)CC1)c1csc2ccccc12`, the GI50 was 36.1 µM and the TGI is over 100 µM.

Consider `COc1cc2ncn(-c3cc(OCc4ccccc4Cl)c(C(N)=O)s3)c2cc1OC`, for which the GI50 was 0.186 µM and the TGI is over 11.2 µM.

As to `Cc1ccc2c(C(C[N+](=O)[O-])c3cccs3)c(-c3ccccc3)[nH]c2c1` (stereo not given), the GI50 was 1.15 µM and the TGI came out at 4.54 µM.

As for `N/C(CC(=O)Nc1cc(C(F)(F)F)ccc1Cl)=N\O`, the TGI was over 100 µM.

The next assay has as its system SNB-75 CNS. Description: NCI tumour cell line growth inhibition, 48 h.
In the case of `CN1CCN(Cc2ccc(C(=O)Nc3cncc(C#Cc4cnc(N)c5ccccc45)c3)cc2C(F)(F)F)CC1`, the GI50 was 3.42 µM and the TGI worked out at 12.3 µM.

For `CC(=O)OCC1OC(O[C@@H]2C[C@H]3C(C)(C)[C@H](OC(C)=O)CC[C@]3(C)[C@H]3CCC4=C([C@@H](C)C[C@@H](O)[C@H](O)C(C)(C)O)CC[C@@]4(C)[C@@]32C)C(O)C(O)C1O` (stereo not given in full), the GI50 is 13.2 µM and the TGI was determined as 26 µM.

With `N#CC(=C1SCS1)[N+](=O)[O-]`, the GI50 was 2.44 µM and the TGI was 8.76 µM.

As for `CC(C)(C)OC(=O)n1cc(CNC(=S)Nc2ccccc2)c2ccccc21`, the GI50 was 64.4 µM and the TGI was over 100 µM.

On to `O=C(NNc1nc2c(F)cccc2n2cccc12)c1cnccn1`, for which the GI50 is 1.98 µM and the TGI was 41.6 µM.

Consider `CN=C(N)N/N=C(\c1ccccc1)c1ccc(Br)cc1`, for which the GI50 is 0.387 µM and the TGI was 6.51 µM.

On to `COc1cc(/C=C\[N+](=O)[O-])ccc1O`, for which the GI50 is 3.35 µM and the TGI stood at 17.2 µM.

Consider `C=CC(=O)N[C@H]1C=C(C)c2c(-c3cnc4ccccc4c3)c3c(N)ncnc3n2C1`, for which the GI50 is 3.56 µM and the TGI stood at 30.5 µM.

On to `CCOc1ccc(S(=O)(=O)/N=C2\C=C(SCC(=O)O)C(=O)c3ccccc32)cc1`, for which the GI50 was 2.5 µM and the TGI was determined as 4.96 µM.

As for `C[C@@H]1CC[C@@H]2[C@@H]1[C@H](OC(=O)/C=C/c1ccccc1)[C@]1(c3ccccc3)C[C@@H](OC(=O)CO)[C@@]2(C)O1`, the GI50 was 11.6 µM and the TGI was determined as 37.9 µM.

For the compound `O=C(c1ccc2ccccc2c1)c1c(C(F)(F)F)n([O-])c2cc(Cl)c(Cl)cc2[n+]1=O`, the GI50 is 1.48 µM and the TGI was determined as 2.8 µM.

Take `O=C(CSc1nc2ccc([N+](=O)[O-])cc2[nH]1)Nc1ccc(F)c(Cl)c1`: the GI50 is 1.84 µM and the TGI was found to be 7.5 µM.

As to `C=C1C(=O)O[C@H]2[C@H]1CC/C(CNC(=O)c1c[nH]c3ccc(F)cc13)=C\CC[C@@]1(C)O[C@@H]21`, the GI50 is 1.81 µM and the TGI came out at 16.2 µM.

In the case of `Cc1nn(-c2ccc(F)cc2)c2ncnc(Nc3ccc(NC(=O)Nc4ccc(Cl)c(C(F)(F)F)c4)cc3)c12`, the GI50 is 1.32 µM and the TGI was found to be 5.41 µM.

For the compound `O=C(CCN1CCN(c2cnc3ccccc3n2)CC1)c1csc2ccccc12`, the GI50 was 24.2 µM and the TGI was 91.6 µM.

On to `COc1cc2ncn(-c3cc(OCc4ccccc4Cl)c(C(N)=O)s3)c2cc1OC`, for which the GI50 was 0.707 µM and the TGI came to 6.47 µM.

As for `Cc1ccc2c(C(C[N+](=O)[O-])c3cccs3)c(-c3ccccc3)[nH]c2c1` (stereo not given), the GI50 is 0.638 µM and the TGI came out at 2.49 µM.

Compound `N/C(CC(=O)Nc1cc(C(F)(F)F)ccc1Cl)=N\O` registered a TGI of over 100 µM.

(Values after PubChem BioAssay (NCI).)
